In assay [1] the test system is Escherichia coli ATCC 25922. The assay can be described thus: Evaluation test for disinfecting effect, broth dilution method CLSI(M7-A7)2006. The format is cell-based. The following applies: 37°C, 18 hours. The text has this: (§1) The following test compounds were examined for the disinfecting activities against Pseudomonas aeruginosa, E.. Coli and staphylococcus aureus, according to a broth dilution method of "CLSI(M7-A7)2006" (Clinical and Laboratory Standards Institute, M7-A7, Methods for Dilution Antimicrobial Susceptibility Tests for Bacteria That Grow Aerobically; Approved Standard-Seventh Edition, 2006),
(§2) • Pseudomonas aeruginosa PAO1 • Pseudomonas aeruginosa ATCC 27853 • Escherichia coli ATCC 25922 • Staphylococcus aureus ATCC 29213 • Staphylococcus aureus Methicillin resistant (MRSA) ATCC 43300
(§3) Each of above-mentioned bacteria was inoculated in a TSB culture medium (Bacto TSB Broth, product of BD) for overnight cultivation at 37°C. The culture solution was applied to a TSB agar plate for about a 20-hour cultivation to form colonies. Three to five colonies were taken from the agar plate, and an average colony of them was inoculated in a 4mL TSB culture medium.. The colony was cultivated at 35°C until the number of microorganisms became 1 × 10^8 to 2 x 10^8 CFU/mL. The number of microorganisms with time was found by measuring changes in absorbency at 590nm of culture solution with time. When the turbidity became equivalent to 0.5 McFarland standard, it was determined that the number of microorganisms reached the target level = 1 × 10^8 to 2 × 10^8 CFU/mL.
(§4) The bacillus culture solution thus obtained was diluted 10-fold within 15 minutes, and a 5µL portion was inoculated in each well of an evaluation 96-well microplate. This 96-well microplate was a sterilized 96-well microplate with U-shaped bottoms (Falcon 35-3918: product of BD), and each well was filled with a 100µL portion of MH culture medium (BBL MH Broth: product of BD). Within 15 minutes after inoculation of the bacillus culture solutions, the test compounds were supplied to the well in a manner of 2-fold graded dilution. The cultivation was then carried out at 37°C for 18 hours.
(§5) The MIC was determined as follows. "S (susceptible)" indicates a concentration which caused 80% or more reduction in the diameter of the aggregation deposited in the bottom of the well, compared to when the test liquid is not used. "R (Resistant)" indicates a concentration that caused less than 80% reduction in diameter. The reduction was measured visually.. "I(Intermediate)" indicates a concentration that cannot be measured visually
A general note: Dilution methods test growth across graded concentrations, often in twofold steps.

Assay [2] deals with Pseudomonas aeruginosa ATCC 27853. The assay is described as above. The format is cell-based. The following applies: 37°C, 18 hours.
Source text: as §1, §2, §3, §4, §5

Assay [3] has as its system Pseudomonas aeruginosa PAO1. Described as above. The format is cell-based. The following applies: 37°C, 18 hours.
Source text: as §1, §2, §3, §4, §5

Assay [4] has as its system Staphylococcus aureus ATCC 29213. The assay is described as above. The following applies: 37°C, 18 hours. The format is cell-based.
Source text: as §1, §2, §3, §4, §5

For assay [5], the system named is Staphylococcus aureus Methicillin resistant (MRSA) ATCC 43300. The assay is described as above. The format is cell-based. The following applies: 37°C, 18 hours.
Source text: as §1, §2, §3, §4, §5

For assay [6], the system named is Staphylococcus aureus ATCC 29213. The following applies: Publicly-known data, CLSI(M100-S16)2006 liquid dilution method; cited from earlier work.
Assay [7] concerns Pseudomonas aeruginosa ATCC 27853. The following applies: Publicly-known data, CLSI(M100-S16)2006 liquid dilution method; cited from earlier work.
Assay [8] relates to Escherichia coli ATCC 25922. The following applies: Publicly-known data, CLSI(M100-S16)2006 liquid dilution method; cited from earlier work.
Assay [9] deals with Pseudomonas aeruginosa (gfp expression PAO1-strain). The assay can be described thus: Evaluation test for biofilm formation inhibition effect against Pseudomonas aeruginosa (flow cell system, fluorescence confocal microscope). The format is cell-based. The following applies: test liquid 100µM; observed up to 84 hours; compared with control test liquid (huge, thick biofilm). The method, then: With the flow cell system shown in FIG. 1, an inhibitory effect against biofilm formation by Pseudomonas aeruginosa was evaluated for each of the amide compounds produced in Production Examples 1, 3, 5, 6 and 7 (Compounds 1a-1, 1b-1, 1c-1, 1c-2, 1d-1), and for each of Comparative Compounds (Comparative Example) 1 to 3 denoted by the following formulas. [drawing 20] [drawing 21] [drawing 22]
A culture medium bottle (1), a peristaltic pump (2), a glass cell (4) and a waste fluid bottle (5) are connected via a silicon tube (6) so that a culture medium (9) is supplied to the glass cell (4) from the culture medium bottle (1) using the peristaltic pump (2). The system includes an air removal section (3) between the peristaltic pump (2) and a turncock (7a), for removing the entrained air. All instruments in the flow cell system are sterilized using gamma-rays or an autoclave.
As specifically described later, the inhibitory effect against biofilm formation of each of the amide compounds is examined in the following manner.. Bacteria are cultured in a glass cell (4) to grow a biofilm on the inner wall of the cell, and a test liquid containing one of the amide compounds is applied to the biofilm. Then the state of the biofilm is observed to evaluate the inhibitory effect against biofilm formation of the compound using a fluorescence confocal microscope (Leica TCS SP2: product of Leica). […]

Assay [10] has as its system Porphyromonas gingivalis 381-strain (clinical strain). The assay can be described thus: Evaluation test for biofilm formation inhibition effect against periodontitis pathogenic bacteria (flow cell system, HA disks, turbidity). The format is cell-based. The following applies: Porphyromonas gingivalis, 336 h; 100µM; 14 days; relative to control test liquid (Mean Comparison OD Value); read-out: Biofilm Formation Inhibition Rate(%). The method, then: As with Experiment Example 1, using the flow cell system of FIG. 1, an inhibitory effect against biofilm formation by periodontitis pathogenic bacteria was evaluated for each of the amide compounds produced in Production Examples 1, 3, 5, and 6 (Compounds 1a-1, 1b-1, 1c-1, 1c-2).
Periodontitis pathogenic bacteria Porphyromonas gingivalis 381-strain (clinical strain) was used..
A GAM culture medium containing hemin 5µg/L and menadione 1µg/L was used.
The 381-strain was inoculated in the GAM culture medium, and cultivated until stationary phase (OD550=1.8). Then the culture medium was diluted 20-fold by a fresh GAM culture medium containing the above-mentioned substances.
The test liquid was prepared by dissolving 100µM of each of the Compounds 1a-1, 1b-1, 1c-1, or 1c-2 according to Production Examples 1, 3, 5 and 6 and 100µM of Comparative Compounds 1 and 2 as comparative examples in dimethyl sulfoxide (DMSO), and supplying the resulting DMSO solutions to the above-mentioned bacterial suspensions so that the concentration of each compound becomes 0.1%(v/v).
A DMSO not containing the compound was used as a control test liquid.
The glass cell (4) of the flow cell system (see FIG. 1) was replaced with a stainless cell (3 x 7 x 120mm), and 10 hydroxyapatite (HA) disks (6mm in diameter, 1mm in thickness) were placed in the cell. The HA disks had been subjected to salivary treatment overnight. Each of the test liquids and control test liquids was circulated in the system at a flow rate of 8mL/min for 14 days, Note that the test liquids and the control test liquids were replaced with fresh liquids every two days.
After the cultivation, the HA disks were dipped in 300µL of sterile distilled water, and treated by supersonic wave for 30 minutes at 4°C, The biofilms formed in the HA disks were peeled off and suspended in distilled water. Then, 100µL of the suspension liquid was measured for the turbidity with an absorptiometer (C07500 colorimeter, product of Funakoshi) (measurement wavelength = 550 nm).
A mean OD was found based on the resulting OD values, excluding the minimum and maximum values, Also, a mean value of the turbidities for the Control Test Liquids was found in the same manner as the control mean OD value. A biofilm formation inhibition rate (Inhibition Rate) was found by the following formula. Biofilm Formation Inhibition Rate (%) = […] [formula]

[11] abbreviates: ATCC25922, I (Intermediate): concentration that cannot be measured visually, read-out: MIC (µg/mL) I.
Where [12] appears, read: ATCC25922, R (Resistant): concentration that caused less than 80% reduction in diameter of the aggregation, read-out: MIC (µg/mL) R.
Setting [13] is: ATCC25922, S (susceptible): concentration which caused 80% or more reduction in diameter of the aggregation, read-out: MIC (µg/mL) S.
The mark [14] stands for this setting: ATCC27853, I (Intermediate): concentration that cannot be measured visually, read-out: MIC (µg/mL) I.
[15] abbreviates: ATCC27853, R (Resistant): concentration that caused less than 80% reduction in diameter of the aggregation, read-out: MIC (µg/mL) R.
Where [16] appears, read: ATCC27853, S (susceptible): concentration which caused 80% or more reduction in diameter of the aggregation, read-out: MIC (µg/mL) S.
The mark [17] stands for this setting: PAO1, I (Intermediate): concentration that cannot be measured visually, read-out: MIC (µg/mL) I.
[18] abbreviates: PAO1, R (Resistant): concentration that caused less than 80% reduction in diameter of the aggregation, read-out: MIC (µg/mL) R.
The mark [19] stands for this setting: PAO1, S (susceptible): concentration which caused 80% or more reduction in diameter of the aggregation, read-out: MIC (µg/mL) S.
[20] abbreviates: ATCC29213, I (Intermediate): concentration that cannot be measured visually, read-out: MIC (µg/mL) I.
[21] abbreviates: ATCC29213, R (Resistant): concentration that caused less than 80% reduction in diameter of the aggregation, read-out: MIC (µg/mL) R.
Where [22] appears, read: ATCC29213, S (susceptible): concentration which caused 80% or more reduction in diameter of the aggregation, read-out: MIC (µg/mL) S.
Where [23] appears, read: R (Resistant): concentration that caused less than 80% reduction in diameter of the aggregation, read-out: MIC (µg/mL) R.

≈ marks a conversion by molar mass, not a printed value. Where two headings read alike, the source gives them in different places.

For the compound `CC[C@H]1OC(=O)[C@H](C)[C@@H](O[C@H]2C[C@@](C)(OC)[C@@H](O)[C@H](C)O2)[C@H](C)[C@@H](O[C@@H]2O[C@H](C)C[C@H](N(C)C)[C@H]2O)[C@](C)(O)C[C@@H](C)CN(C)[C@H](C)[C@@H](O)[C@]1(C)O` [AZM, Azithromycin], the MIC in assay [1] (setting [11]) is 4 µg/mL (≈ 5.34 µM); in assay [1] (setting [12]), at most 2 µg/mL; in assay [1] (setting [13]) it was at least 8 µg/mL; in assay [2] (setting [14]), 64 µg/mL (≈ 85.4 µM); in [2] (setting [15]), at most 32 µg/mL; in assay [2] (setting [16]) it was at least 128 µg/mL. The MIC was 64 µg/mL (≈ 85.4 µM) in [3] (setting [17]); at most 32 µg/mL in assay [3] (setting [18]); at least 128 µg/mL in [3] (setting [19]); 1 µg/mL (≈ 1.34 µM) in assay [4] (setting [20]); at most 0.5 µg/mL in assay [4] (setting [21]); at least 2 µg/mL in assay [4] (setting [22]). Besides, the MIC in assay [5] (setting [23]) is at most 1020 µg/mL. For the same compound, the “MIC (µg/mL) from M100-S16” value in [6] was 0.5 to 2 µg/mL.

Take `CC(C)(O/N=C(\C(=O)N[C@@H]1C(=O)N2C(C(=O)[O-])=C(C[n+]3ccccc3)CS[C@H]12)c1csc(N)n1)C(=O)O` [CAZ, Ceftazidime]: the MIC in assay [1] (setting [11]) was 0.125 µg/mL (≈ 0.229 µM); in assay [1] (setting [12]) it was at most 0.063 µg/mL; in assay [1] (setting [13]), at least 0.25 µg/mL; in [2] (setting [14]), 2 µg/mL (≈ 3.66 µM); in assay [2] (setting [15]), at most 1 µg/mL; in [2] (setting [16]), at least 4 µg/mL. Also, the MIC in assay [3] (setting [17]) was 1 µg/mL (≈ 1.83 µM); in assay [3] (setting [18]) it was at most 0.5 µg/mL; in assay [3] (setting [19]), at least 2 µg/mL; in assay [4] (setting [20]), 4 µg/mL (≈ 7.32 µM); in [4] (setting [21]), at most 2 µg/mL; in [4] (setting [22]), at least 8 µg/mL. For the same compound, the MIC in [5] (I (Intermediate): concentration that cannot be measured visually, read-out: MIC (µg/mL) I) is 8 µg/mL (≈ 14.6 µM); in assay [5] (setting [23]), at most 4 µg/mL; in assay [5] (S (susceptible): concentration which caused 80% or more reduction in diameter of the aggregation, read-out: MIC (µg/mL) S) it was at least 16 µg/mL. The “MIC (µg/mL) from M100-S16” value in [7] is 1 to 4 µg/mL; in assay [8] it was 0.06 to 0.5 µg/mL; in assay [6], 4 to 16 µg/mL.

As usually defined, the inhibition is the drop in the measured response relative to a control, in per cent. `CCCCCCCCCC(=O)CC(=O)Nc1ccccc1O` [Comparative Compound 1]: the “state of biofilm formation” value in assay [9] was “the huge, thick biofilm was observed as in the control test”. Also, in assay [10], the inhibition at 100 µM is -36%.

For `CCCCCCCCCCCC(=O)NN1CCCCC1` [Compound 1d-1, N-(piperidin-1-yl) dodecanoyl amide], in assay [9], the “state of biofilm formation” value is listed as “such biofilm formation was not observed”.

Values taken from EP2077260B1, “AMIDE COMPOUND OR SALT THEREOF, AND BIOFILM FORMATION INHIBITOR, BIOFILM REMOVER AND BACTERICIDE EACH USING THE AMIDE COMPOUND OR SALT THEREOF” (The University of Tokyo, priority 2006, dated 2008).
